From US4778803A, “Nitrogen-arylmethoxy-thiophene derivatives and acid addition salts thereof, and pharmaceutical preparations containing these compounds” (Chemie Linz Aktiengesellschaft, priority 1986, dated 1988)
pIC50: −log10 of the molar value.

System: leukotriene B4 (LTB4) formation in human granulocytes
Assay: inhibitory action on leukotriene B4 (LTB4) formation induced by the calcium ionophor A 23-187 in human granulocytes
Assay type: cell-based
Settings: 10 min, 10^7 cells per ml, 10 minutes at 37° C. with compound, then 10 minutes with A 23 187 (final concentration 1 μm), HPLC, 280 nm, 2 experiments per concentration, read-out: concentration which led to a 50% inhibition (IC50) of LTB4 formation
Method: To investigate the pharmacological properties of the substances according to the invention, their inhibitory action on leukotriene B4 (LTB4) formation induced by the calcium ionophor A 23-187 was measured. For this, human granulocytes were washed, the cell count was adjusted to 10^7 cells per ml and the cells were incubated for 10 minutes at 37° C. with the compounds according to the invention, such as, for example, 1-(5-(2-quinolinylmethoxy)-2-thienyl)-1-hexanone (compound according to Example 3) or alpha-pentyl-5-(2-quinolinylmethoxy)-2-thiophenemethanol (compound according to Example 5), which had been dissolved to 10^-2 M in dimethylsulfoxide and diluted to the desired concentration with physiological NaCl. The cells were then incubated for a further 10 minutes, after addition of A 23 187 (final concentration 1 μm). The reaction was stopped by addition of glacial acetic acid. The mixture was centrifuged, the supernatant was pipetted off and prostaglandin B2 was added as an internal standard.
The lipid fraction was resolved via HPLC, LTB4 and its 20--OH-- and 20--COOH-metabolites being determined photometrically at 280 nm.
2 experiments were carried out for each concentration value of the substances according to the invention and the concentration which led to a 50% inhibition (IC50) of LTB4 formation was determined for each substance. […]

In the case of CCCCCC(=O)c1ccc(OCc2ccc3ccccc3n2)s1 [Example 3, 1-[5-(2-Quinolinylmethoxy)-2-thienyl]-1-hexanone], the pIC50 was 6.70.
For CCCCCC(O)c1ccc(OCc2ccc3ccccc3n2)s1 (stereo not drawn) [Example 5, α-Pentyl-5-(2-quinolinylmethoxy)-2-thiophenemethanol], the pIC50 was 6.00.
